# Laboratory results published in patent US20110105496A1, “Methods For The Treatment Of Myosin Heavy Chain-Mediated Conditions Using 4,7-Dihydrothieno[2,3-B]Pyridine Compounds” (priority 2005, published 2011).
# Like-named read-outs stand apart in the source and are kept apart here.
# System: alpha-MyHC
# Test: alpha-MyHC cytoblot process in neonatal rat ventricular myocytes (NRVM)
# Type: cell-based
# Experimental: In vitro activity of each compound is measured using the alpha-MyHC cytoblot process. Briefly, neonatal rat ventricular myocytes (NRVM) at 120,000 cells/ml in HyQ DME/High modified culture media supplemented with 10% charcoal/dextran treated FBS, 0.1% Nutridoma-SP, 1:100 MEM non-essential amino acids, 1:50 MEM amino acids solution w/o L-Gln, 1 mM sodium pyruvate and 1:100 P/S/G, are plated on gelatin coated sterile 384-well plates (Costar 3712) at 6,000 cells per well. Cells are incubated overnight at 37° C. in 5% CO2 100% humidity. Following overnight growth the media is changed to HyQ DME/High modified culture media supplemented with 0.3% Nutridoma-SP, 1:100 MEM non-essential amino acids, 1:50 MEM amino acids solution w/o L-Gln, 1 mM sodium pyruvate and 1:100 P/S/G. Cells are then dosed with serial dilutions of each compound in DMSO. Each concentration in the dose range is dosed in quadruplicate. Dosing is done in such a way so that the final DMSO concentration was 0.44%. Compound dilutions are 3-fold with the final top concentration of 10 uM. […] Following dosing, the cells are incubated for 72 hours at 37° C. in 5% CO2 100% humidity and then processed with the cytoblot method. Briefly, cell media is aspirated and cell monolayers washed with PBS and fixed with 100% methanol for 30 minutes. Fixed cells are then blocked with PBS, 0.05% Tween-20, 1% BSA, for 1 hour. Following blocking, cells are incubated with primary alpha-MyHC-specific antibody antibody (1:30 dilution of BA-G5 hybridoma conditioned media, ATCC HB276) for 1 hour. Following incubation with the primary antibody, cells are washed with PBS, 0.05% Tween-20, 1% BSA and incubated with secondary antibody (1:1000 dilution, goat-anti-mouse HRP, Southern Biotech, 1031-05) for 1 hour. Following incubation with the secondary antibody, wells are washed and incubated in SuperSignal, West Dura HRP-luminescence substrate for 30 seconds under shaking at room temperature. Luminescence is measured using a Packard Fusion plate reader. […] RLU values are converted into per cent fraction of low control and dose responses are fitted to a sigmoidal 4-parameter equation (XLFit, IDBS) where the EC50 and Max Plateau values were extracted. […] Max Plateau is the […] maximum value determined by the dose response fit.
# [1] = Table 2 (esters), NRVM, 72 hours, alpha-MyHC cytoblot
# [2] = Table 2 (esters), NRVM, 72 hours, maximum of dose response fit
# [3] = Table 3 (amides), NRVM, 72 hours, alpha-MyHC cytoblot
# [4] = Table 3 (amides), NRVM, 72 hours, maximum of dose response fit
# [5] = Table 1, NRVM, 72 hours, alpha-MyHC cytoblot, mean ± spread
# [6] = Table 1, NRVM, 72 hours, maximum of dose response fit, low control = vehicle only
SMILES,Max Plateau [2],EC50 [5],Max Plateau [6],further results
"CCC(=O)C1=C(CC)Nc2sc(C(=O)c3ccc(Cl)c(Cl)c3)c(N)c2C1c1ccccc1F (racemic) [Compound 39, 1-[3-amino-2-(3,4-dichloro-benzoyl)-6-ethyl-4-(2-fluoro-phenyl)-4,7-dihydro-thieno[2,3b]pyridin-5-yl]-propan-1-one]",,,,"EC50 (Rattus norvegicus, Ventricular myocyte, Table 1, NRVM, 72 hours, alpha-MyHC cytoblot, mean ± spread): 17.1 nM; Emax (Rattus norvegicus, Ventricular myocyte, Table 1, NRVM, 72 hours, maximum of dose response fit, low control = vehicle only, read-out: Max Plateau): 273 ± 37.3%"
CCC1=C(C(=O)OC)C(c2ccnc(F)c2)c2c(sc(C(=O)c3cccc(Cl)c3)c2N)N1 (racemic) [Compound 175],289.91 per cent fraction of low control,,,EC50 [1]: 0.183 nM
COC(=O)C1=C(C2CC2)Nc2sc(C(=O)c3cccc(Cl)c3)c(N)c2C1c1ccnc(F)c1 (racemic) [Compound 176],218.25 per cent fraction of low control,,,EC50 [1]: 42.1 nM
COC(=O)C1=C(C(C)C)Nc2sc(C(=O)c3cccc(C#N)c3)c(N)c2C1c1ccccc1F (racemic) [Compound 177],162.75 per cent fraction of low control,,,EC50 [1]: 796 nM
CCC1=C(C(=O)OCCOC)C(c2ccccc2F)c2c(sc(C(=O)c3cccc(C#N)c3)c2N)N1 (racemic) [Compound 178],258.67 ± 45.31 per cent fraction of low control,,,
CCC1=C(C(=O)OCCOC)C(c2ccnc(F)c2)c2c(sc(C(=O)c3cccc(C#N)c3)c2N)N1 (racemic) [Compound 192],237.07 ± 13.03 per cent fraction of low control,,,
CCOC(=O)C1=C(CC)Nc2sc(C(=O)c3ccc(F)c(CC(=O)OC)c3)c(N)c2C1c1ccccc1 (racemic) [Compound 194],188.67 per cent fraction of low control,,,EC50 [1]: 247 nM
CCNC(=O)C1=C(C)Nc2sc(C(=O)c3ccc(Cl)c(Cl)c3)c(N)c2C1c1ccccc1 (racemic) [Compound 195],,,,EC50 [3]: 337000 nM; Max Plateau [4]: 126.67 ± 23.09 per cent fraction of low control
CCCCNC(=O)C1=C(C)Nc2sc(C(=O)c3ccc(Cl)c(Cl)c3)c(N)c2C1c1ccccc1 (racemic) [Compound 196],,,,EC50 [3]: 334000 nM; Max Plateau [4]: 121.93 ± 25.12 per cent fraction of low control
COCCOCN1C(C)=C(C(C)=O)C(c2ccccc2)c2c1sc(C(=O)c1ccccc1)c2N (racemic) [Compound 209],,,,"EC50 (Table 5 (R^4 substituted), NRVM, 72 hours, alpha-MyHC cytoblot): 393 nM; Max Plateau (Table 5 (R^4 substituted), NRVM, 72 hours, maximum of dose response fit): 192.74 per cent fraction of low control"
CC1=C(C(=O)OCCN)C(c2ccccc2)c2c(sc(C(=O)c3ccc(Cl)c(Cl)c3)c2N)N1 (racemic) [compound 213],,,,EC50: 326 nM; Max Plateau: 208.56 ± 23.45
"CCC1=C(C(=O)OC(C)CC)C(c2ccccc2F)c2c(sc(C(=O)c3ccc(Cl)c(Cl)c3)c2N)N1 (single isomer, unassigned) [Compound 162]",183.22 per cent fraction of low control,,,EC50 [1]: 197 nM
"CCC1=C(C(=O)OC(C)CC)C(c2ccccc2F)c2c(sc(C(=O)c3ccc(Cl)c(Cl)c3)c2N)N1 (single isomer, unassigned) [Compound 163]",224.85 per cent fraction of low control,,,EC50 [1]: 142 nM
"CCC1=C(C(=O)OC(C)CC)C(c2ccccc2F)c2c(sc(C(=O)c3cccc(C#N)c3)c2N)N1 (single isomer, unassigned) [Compound 165]",250.83 per cent fraction of low control,,,EC50 [1]: 12 nM
"CCC1=C(C(=O)OC(C)CC)C(c2ccccc2F)c2c(sc(C(=O)c3cccc(C#N)c3)c2N)N1 (single isomer, unassigned) [Compound 166]",219.07 per cent fraction of low control,,,EC50 [1]: 33.3 nM
"CCC1=C(C(=O)OCCOC)C(c2ccccc2F)c2c(sc(C(=O)c3cccc(Cl)c3)c2N)N1 (single isomer, unassigned) [Compound 179]",237.11 ± 19.59 per cent fraction of low control,,,
"CCC1=C(C(=O)OCCOC)C(c2ccnc(F)c2)c2c(sc(C(=O)c3cccc(Cl)c3)c2N)N1 (single isomer, unassigned) [Compound 183]",284.35 ± 38.37 per cent fraction of low control,,,
"CCC1=C(C(=O)OCCOC)C(c2ccccc2F)c2c(sc(C(=O)c3cccc(Cl)c3)c2N)N1 (single isomer, unassigned) [Compound 187]",162.93 ± 10.10 per cent fraction of low control,,,

SMILES,Max Plateau [2],EC50 [5],Max Plateau [6],further results
"CCC1=C(C(=O)OCCOC)C(c2ccnc(F)c2)c2c(sc(C(=O)c3cccc(Cl)c3)c2N)N1 (single isomer, unassigned) [Compound 191]",263.67 ± 1.13 per cent fraction of low control,,,
CC(=O)C1=C(C)Nc2sc(C(=O)c3ccc(Cl)c(Cl)c3)c(N)c2C1c1ccccc1 (centres unmarked) [Compound 2],,177 nM,207.74 ± 23.00 per cent fraction of low control,
CC(=O)C1=C(C)Nc2sc(C(=O)c3ccccc3)c(N)c2C1c1ccccc1 (centres unmarked) [Compound 3],,797 nM,250.88 ± 32.62 per cent fraction of low control,
"CC(=O)C1=C(C)Nc2sc(C(=O)c3cccc([N+](=O)[O-])c3)c(N)c2C1c1ccccc1Cl (centres unmarked) [Compound 4, 1-[3-amino-4-(2-chloro-phenyl)-6-methyl-2-(3-nitro-benzoyl)-4,7dihydro-thieno[2,3-b]pyridin-5-yl]-ethanone]",,,244.20 ± 37.25 per cent fraction of low control,
CC(=O)C1=C(C)Nc2sc(C(=O)c3cccnc3)c(N)c2C1c1ccccc1 (centres unmarked) [Compound 5],,2330 nM,286.43 ± 42.04 per cent fraction of low control,
CC(=O)C1=C(C)Nc2sc(C(=O)c3cccc(Br)c3)c(N)c2C1c1ccccc1 (centres unmarked) [Compound 6],,48.9 nM,289.34 ± 70.69 per cent fraction of low control,
CC(=O)C1=C(C)Nc2sc(C(=O)c3ccc(C)c(C)c3)c(N)c2C1c1ccccc1 (centres unmarked) [Compound 8],,797 nM,172.29 ± 9.66 per cent fraction of low control,
CC(=O)C1=C(C)Nc2sc(C(=O)c3cccc([N+](=O)[O-])c3)c(N)c2C1c1ccc(C(=O)O)cc1 (centres unmarked) [Compound 9],,,100.00 ± 0.00 per cent fraction of low control,
CC(=O)C1=C(C)Nc2sc(C(=O)c3ccncc3)c(N)c2C1c1ccccc1 (centres unmarked) [Compound 10],,2680 nM,210.00 ± 36.06 per cent fraction of low control,
CC(=O)C1=C(C)Nc2sc(C(=O)c3ccc(Cl)c(Cl)c3)c(N)c2C1c1ccccc1Cl (centres unmarked) [Compound 13],,82.5 nM,,
COc1ccc(C2C(C(C)=O)=C(C)Nc3sc(C(=O)c4ccccc4)c(N)c32)cc1 (centres unmarked) [Compound 14],,3030 nM,182.73 ± 26.95 per cent fraction of low control,
COc1cccc(C2C(C(C)=O)=C(C)Nc3sc(C(=O)c4ccccc4)c(N)c32)c1 (centres unmarked) [Compound 15],,,126.50 ± 24.27 per cent fraction of low control,
CC(=O)C1=C(C)Nc2sc(C(=O)c3ccccn3)c(N)c2C1c1ccccc1 (centres unmarked) [Compound 16],,4290 nM,163.33 ± 32.15 per cent fraction of low control,
COc1ccccc1C1C(C(C)=O)=C(C)Nc2sc(C(=O)c3ccccc3)c(N)c21 (centres unmarked) [Compound 18],,876 nM,215.25 ± 44.08 per cent fraction of low control,
CC(=O)C1=C(C)Nc2sc(C(=O)c3ccccc3)c(N)c2C1c1ccncc1 (centres unmarked) [Compound 19],,3390 nM,260.00 ± 36.06 per cent fraction of low control,
CC(=O)C1=C(C)Nc2sc(C(=O)c3ccccc3)c(N)c2C1c1cccnc1 (centres unmarked) [Compound 20],,,127.35 ± 23.71 per cent fraction of low control,
CC(=O)C1=C(C)Nc2sc(C(=O)c3ccccc3)c(N)c2C1c1ccc(Cl)cc1 (centres unmarked) [Compound 21],,583 nM,193.20 ± 49.26 per cent fraction of low control,
